What all share (experiment): NCI tumour cell line growth inhibition, 48 h
Assay [1] has as its system KM12 colon.
Assay [2] concerns RPMI-8226 leukemia.
Assay [3] relates to LOX IMVI melanoma.
The subject of assay [4] is SW-620 colon.
The test system of assay [5] is UACC-62 melanoma.
For assay [6], the system named is ACHN renal.
The subject of assay [7] is HOP-62 NSCLC.
The subject of assay [8] is SN12C renal.
Assay [9] deals with 786-0 renal.
Assay [10] relates to PC-3 prostate.

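These data come from cells grown in 96-well plates and exposed to compound for 48 hours at five concentrations. GI50 is the concentration that inhibits growth by half. The concentration for full growth arrest is given as TGI.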

For `COc1cccc2c1nc(C(F)F)n2-c1nc(-c2ccc(NS(=O)(=O)CCN(C)C)cc2)nc(N2CCOCC2)n1`, the GI50 was 0.275 µM in [1]; 0.272 µM in assay [2]; 0.176 µM in assay [3]; 0.341 µM in assay [4]; 0.134 µM in [5]; 0.115 µM in assay [6]. The GI50 in assay [7] is 0.123 µM; in assay [8], 0.305 µM; in [9], 0.231 µM; in assay [10], 0.0923 µM. Also, the TGI in assay [1] worked out at 12.8 µM; in assay [2], 2.41 µM; in [3], 2.13 µM; in [4], 6.78 µM; in assay [5], 1.45 µM; in [6], 11.2 µM. The TGI in assay [7] was 6.56 µM; in assay [8], more than 100 µM; in assay [9], 2.76 µM; in assay [10], 12.9 µM.

On to `N#CCCNc1nonc1-c1nc2ccccc2n1CC(=O)c1ccc(N)cc1`, for which the GI50 in [1] was less than 0.0118 µM; in assay [2], 0.0309 µM; in assay [3], 0.0326 µM; in assay [4] it was 0.031 µM; in assay [5], less than 0.0154 µM; in assay [6], 0.0362 µM. Moreover, the GI50 is 0.0432 µM in assay [7], 0.0447 µM in [8], 0.0417 µM in [9] and 0.0271 µM in [10]. In addition, the TGI was 1.28 µM in assay [1]; more than 100 µM in [3]; more than 100 µM in [4]; more than 100 µM in [5]; more than 100 µM in [6]; more than 100 µM in assay [7]. Moreover, the TGI in [8] is more than 100 µM; in [9], more than 100 µM; in assay [10], more than 77.8 µM.

Regarding `O=C(O)/C=C\C(=O)Nc1ccc2c(c1)-c1ccccc1C2`, the TGI in assay [1], in assay [2], in [3], in assay [4], in assay [5] and in assay [6] was more than 100 µM throughout. Also, the TGI in [7], in assay [8], in [9] and in assay [10] was more than 100 µM in each case.

For the compound `COC(=O)[C@@H](C)C[C@H](Cc1ccccc1)NC(=O)c1nc([C@@H](C[C@H](C(C)C)N(C)C(=O)[C@@H](NC(=O)[C@H]2C[C@H](O)CCN2C)C(C)C)OC(C)=O)sc1C(C)C`, the GI50 in assay [1] is 0.00473 µM; in assay [2] it was 0.00173 µM; in assay [3] it was 0.00437 µM; in assay [4] it was 0.00533 µM; in [5] it was 0.00243 µM; in assay [6], 0.101 µM. Also, the GI50 in assay [7] was 0.0315 µM; in assay [8] it was 0.00671 µM; in assay [9] it was 0.0337 µM; in assay [10], 0.00391 µM. Further, the TGI in [1] is more than 3.95 µM; in [2], more than 9.92 µM; in assay [3], more than 5.38 µM; in assay [4], more than 11.1 µM; in assay [5] it was more than 11.1 µM; in assay [6], more than 11.1 µM. For the same compound, the TGI in assay [7] was more than 11.1 µM; in assay [8], 3.3 µM; in assay [9], 4.65 µM; in [10] it was more than 11.1 µM.

As for `O=C(CCCc1ccc(N(CCCl)CCCl)cc1)NCc1ccccc1`, the GI50 in assay [1] was 12.3 µM; in assay [2], 4.57 µM; in assay [3] it was 5.37 µM; in [4], 6.4 µM; in assay [5], 4.69 µM; in assay [6], 3.91 µM. Further, the GI50 in assay [7] was 8 µM; in [8], 4.41 µM; in assay [9], 3.32 µM; in assay [10], 12.1 µM. For the same compound, the TGI in assay [1] is 52.1 µM; in [2] it was 27.4 µM; in assay [3] it was 23.9 µM; in [4] it was 73.4 µM; in assay [5], 22 µM; in [6], more than 100 µM. For the same compound, the TGI in assay [7] was 40.5 µM; in [8], more than 100 µM; in assay [9], 23.3 µM; in [10] it was 73.9 µM.

`COC(=O)N[C@H]1CCc2cc(OC)c(OC)c(OC)c2-c2ccc(SC)c(=O)cc21`: the GI50 in assay [1], in [2], in [3], in [4], in assay [5] and in [6] was less than 0.01 µM in each case. The GI50 in assay [7], in assay [8], in assay [9] and in assay [10] was less than 0.01 µM each time. The TGI in assay [1] is more than 100 µM; in [2], more than 64.5 µM; in assay [3] it was more than 100 µM; in [4] it was more than 100 µM; in [5], more than 100 µM; in assay [6], more than 100 µM. The TGI in [7], in [8], in assay [9] and in assay [10] was more than 100 µM in each case.

For `O=P1(NCCCl)OCCCN1CCCl` (centres undefined), the TGI in assay [1] was 448 µM; in assay [2], 428 µM; in assay [3], 402 µM; in [4] it was 401 µM; in [5] it was 419 µM; in assay [6] it was more than 500 µM. Also, the TGI in assay [7] was 444 µM; in [8] it was 437 µM; in [9] it was more than 466 µM; in assay [10], more than 500 µM.

As for `CC(=O)OCC1C(=O)OCC1C(=O)N1Cc2cc3ccccc3nc2C1` (centres undefined), the TGI was 30.4 µM in [1]; 4.6 µM in assay [2]; 5.66 µM in [3]; 1.68 µM in assay [4]; 7.99 µM in assay [5]; 3.39 µM in assay [6]. The TGI came out at 32.7 µM in [7], 14.4 µM in assay [8], 3.84 µM in assay [9] and 20.1 µM in [10].

With `COc1ccc2c(c1)[C@@H](NC(C)=O)CCc1cc(OC)c(OC)c(OC)c1-2`, the TGI in assay [1] was 0.039 µM; in [2], more than 100 µM; in assay [3], more than 75.6 µM; in [4], more than 100 µM; in [5] it was more than 26.8 µM; in [6], more than 100 µM. The TGI in assay [7] was more than 100 µM; in assay [8], more than 100 µM; in assay [9], more than 100 µM; in assay [10], more than 4.75 µM.

With `O=C(O)c1ccc(N(/C=C/C(=O)C(F)(F)F)Cc2ccc(Cl)cc2)cc1`, the GI50 is 23.2 µM in assay [1]; 29.8 µM in assay [2]; 21.4 µM in assay [3]; 35.9 µM in assay [4]; 24 µM in [5]; 24.4 µM in assay [6]. Besides, the GI50 in assay [7] is 24.5 µM; in [8] it was 32.3 µM; in assay [9], 31.4 µM; in assay [10] it was 37.9 µM. Moreover, the TGI in assay [1] is 59.9 µM; in assay [2] it was more than 100 µM; in [3], 51.8 µM; in assay [4] it was more than 100 µM; in [5] it was 66.3 µM; in [6] it was 66 µM. Also, the TGI is 65.3 µM in [7], more than 100 µM in [8], more than 100 µM in assay [9] and more than 100 µM in assay [10].

As to `Sc1cccc2cccnc12`, the GI50 in assay [1] is 0.874 µM; in [2] it was 2.9 µM; in assay [3], 0.57 µM; in assay [4], 1.07 µM; in [5] it was 0.529 µM; in assay [6] it was 0.697 µM. In addition, the GI50 in assay [7] was 1.11 µM; in [8], 1.14 µM; in [9] it was 1.22 µM; in assay [10] it was 0.577 µM. Further, the TGI stood at 12.1 µM in assay [1]; 30.3 µM in assay [2]; 11.1 µM in assay [3]; 16.2 µM in [4]; 7.25 µM in [5]; 12.8 µM in assay [6]. The TGI in [7] was found to be 12.3 µM; in assay [8], 15.1 µM; in assay [9], 14.3 µM; in assay [10], 13.1 µM.

As to `N#CC1=C(N)Oc2c(sc3c(Br)cccc23)C1c1ccc([N+](=O)[O-])cc1` (centres undefined), the GI50 in assay [1] was 0.0997 µM; in assay [2] it was 0.116 µM; in [3], 0.127 µM; in assay [4], 0.0708 µM; in assay [5], 0.0634 µM; in assay [6], 0.12 µM. For the same compound, the GI50 in [7] is 0.123 µM; in assay [8] it was 1 µM; in assay [9], 0.158 µM; in assay [10] it was 0.11 µM. Besides, the TGI in [1] came out at 9.36 µM; in assay [2] it was 6.49 µM; in assay [3], 4.31 µM; in assay [4], 14.5 µM; in assay [5], 12.3 µM; in assay [6], 13 µM. The TGI amounted to 14 µM in [7], 13.1 µM in assay [8], 11.9 µM in assay [9] and 13.6 µM in assay [10].

`CCOC(=O)c1noc2c1CCc1c-2cn(Cc2ccc(OC)cc2)c1-c1cc(OC)c(OC)c(OC)c1`: the GI50 in assay [1] is 0.91 µM; in assay [2], 2.85 µM; in assay [3], 0.646 µM; in assay [4], 0.497 µM; in [5] it was 2.74 µM; in assay [6] it was 3.51 µM. Also, the GI50 in assay [7] is 2.53 µM; in assay [8], 3.92 µM; in [9], 3.65 µM; in assay [10], 2.9 µM. For the same compound, the TGI in assay [1], in [2], in [3], in assay [4], in [5] and in [6] was more than 100 µM in each case. The TGI in assay [7], in [8], in assay [9] and in assay [10] was more than 100 µM in each case.

As to `C=C(CO)C(=O)OC1CC(=C)C2CC(O)C(C)C2C2OC(=O)C(=C)C12` (centres undefined), the TGI in assay [1] was 33.6 µM; in [2], 58.1 µM; in assay [3] it was more than 100 µM; in assay [4], 92.7 µM; in assay [5] it was 35.3 µM; in [6], 34 µM. The TGI in assay [7] was 46.5 µM; in [8], 32.7 µM; in assay [9], more than 100 µM; in [10], more than 100 µM.

Turning to `O=C1NN2CC(c3ccccc3)=NN=C2c2ccccc21`, the GI50 in assay [1] was 31.9 µM; in assay [2], 19.4 µM; in assay [3] it was 22.6 µM; in assay [4], 33 µM; in assay [5], 22.6 µM; in [6], 36.9 µM. In addition, the GI50 in [7] is 35 µM; in [8], 29.1 µM; in assay [9], 26.2 µM; in assay [10], 12.6 µM. Further, the TGI in [1] is more than 100 µM; in [2] it was 41.7 µM; in assay [3], 47 µM; in [4], more than 100 µM; in [5], 49.5 µM; in assay [6], more than 100 µM. The TGI in assay [7] is more than 100 µM; in assay [8], 78.3 µM; in assay [9], 72.3 µM; in assay [10], 33.8 µM.

Regarding `O=S(=O)(NCCCNc1cc(-c2cn(-c3ccccc3)nc2-c2cccc(O)c2)ccn1)c1ccc(C(F)(F)F)cc1`, the GI50 in [1] is 1.89 µM; in assay [2], 1.66 µM; in assay [3], 1.67 µM; in [4] it was 1.78 µM; in assay [5], 1.53 µM; in assay [6], 3.08 µM. Further, the GI50 is 1.95 µM in assay [7], 1.81 µM in assay [8], 1.57 µM in assay [9] and 1.93 µM in assay [10]. In addition, the TGI in assay [1] was 4.49 µM; in assay [2], 4.82 µM; in [3], 3.12 µM; in assay [4], 3.93 µM; in assay [5] it was 3.17 µM; in assay [6], 10.7 µM. For the same compound, the TGI in assay [7] was determined as 3.78 µM; in assay [8] it was 3.67 µM; in [9], 3.7 µM; in assay [10], 4.57 µM.

Consider `C[C@@H]1CN2[C@H]3[C@@H]1CC[C@]31CCC(=O)O[C@]1(C)[C@H]1CC[C@H]3CCC=C3[C@@H]12`, for which the GI50 in assay [1], in assay [2], in [3], in [4], in [5] and in assay [6] was more than 30 µM throughout. In addition, the GI50 in [7], in [8], in assay [9] and in assay [10] was more than 30 µM throughout. Besides, the TGI in assay [1], in assay [2], in [3], in assay [4], in [5] and in assay [6] was more than 30 µM in each case. The TGI in assay [7], in [8], in assay [9] and in [10] was more than 30 µM in each case.

The values are drawn from PubChem BioAssay (NCI).
